Test results from patent publication US9624238B2, “4H-thieno[3,2-C]chromene-based inhibitors of Notum Pectinacetylesterase and methods of their use” (Lexicon Pharmaceuticals, Inc., priority 2011, dated 2017).

Assays:
[1] = target: T1, human notum pectinacetyltransferase (Homo sapiens, UniProt Q6P988); experiment: Reporter assay (CellSensor LEF/TCF-bla FreeStyle 293F cells, Wnt3a and notum conditioned media); assay type: cell-based
T1 construct: made in house; unpurified conditioned medium used
T1 sequence (Q6P988 20-496): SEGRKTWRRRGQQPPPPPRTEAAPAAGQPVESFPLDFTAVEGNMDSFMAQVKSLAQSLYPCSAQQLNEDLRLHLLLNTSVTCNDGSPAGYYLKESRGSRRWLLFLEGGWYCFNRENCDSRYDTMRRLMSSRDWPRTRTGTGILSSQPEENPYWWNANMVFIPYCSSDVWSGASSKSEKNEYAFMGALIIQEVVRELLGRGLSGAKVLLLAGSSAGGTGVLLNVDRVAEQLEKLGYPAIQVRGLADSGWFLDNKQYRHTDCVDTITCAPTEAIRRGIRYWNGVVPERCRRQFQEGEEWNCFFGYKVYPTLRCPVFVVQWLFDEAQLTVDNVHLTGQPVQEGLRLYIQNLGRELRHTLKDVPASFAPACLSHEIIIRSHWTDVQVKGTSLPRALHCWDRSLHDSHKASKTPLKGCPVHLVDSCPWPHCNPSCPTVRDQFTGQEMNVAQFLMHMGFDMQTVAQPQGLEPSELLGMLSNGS
Protocol: Plasmid containing human notum pectinacetyltransferase in pcDNA3.1(+) vector was transfected into HEK (293 cells and clones were selecting by growing in presence of 400 ug/mL of G418. The clone containing highest expression of human notum pectinacetyltransferase in the conditioned media was maintained for all future activity assays. L cells overexpressing and secreting Wnt3a into the conditioned media were purchased from ATCC.
The assay protocol was as follows. […] The cell growth medium consisted of DMEM with 10% Dialyzed FBS, 5 μg/ml Blasticidin (Invitrogen, R210-01), 0.1 mM NEAA, 25 mM HEPES and 1×GPS. Cells were then trypsinized by first rinsing with PBS, followed by addition of 5 mL of trypsin and incubation of plates at room temperature for two minutes. A total of 10 mL of assay media (Opti-MEM, plus 0.5% dialyzed FBS, 0.1 mM NEAA, 1 mM sodium pyruvate, 10 mM HEPES, 1×GPS) was then added per 15 cm plate. Cells were counted and suspended at 0.75 million cells per mL. […] After incubation of cells at 37° C. for 3 hours, 10 μL of 30 mM LiCl in assay medium was added per well, followed by incubation at 37° C. for another 3 hours. […] Ten μL of the Wnt3a/notum pentinacetyltransferase mixture was then transferred from Greiner plates to each well of the 384-well plates containing the CellSensor cells.

[2] = target: T1, human notum pectinacetyltransferase; experiment: Binding assay (OPTS esterase substrate, fluorimetric); assay type: biochemical
Protocol: Plasmid containing human notum pectinacetyltransferase in pcDNA3.1(+) vector was transfected into HEK (293 cells and clones were selecting by growing in presence of 400 ug/mL of G418. Condition media from these cells was used for the assay.

[3] = given as numeric bound above the legend's classes
[4] = given as numeric bound above the legend's highest class
[5] = given as a numeric bound above the legend's range

Row | SMILES | IC50 ([2]; class symbols) [µM] | IC50 [2, 4] [µM] | also measured
1 | O=C(O)c1cc2c(s1)-c1scnc1CC2 | – | – | EC50 [1, 3]: > 1 µM
2 | Cc1ccc2c(c1C)-c1sc(C(=O)O)cc1CC2 | < 2 | – | –
3 | CC1(C)Cc2cc(C(=O)O)sc2-c2ccccc21 | < 1 | – | –
4 | CCCCNC(=O)c1cc2c(s1)-c1ccccc1CC2 | < 1 | – | –
5 | O=C(O)C1CCCN1C(=O)c1cc2c(s1)-c1ccccc1CC2 (stereo not drawn) | – | > 2 | –
6 | CCOC(=O)c1cc2c(s1)-c1cc(F)cc(Cl)c1SC2 | – | – | IC50 [2, 3]: > 2 µM
7 | Cc1cc2c(cc1C)-c1sc(C(=O)O)cc1CC2 | < 2 | – | –
8 | CCNC(=O)c1cc2c(s1)-c1ccccc1CC2 | < 1 | – | –
9 | O=C(O)c1cc2c(s1)-c1ccc(Cl)cc1CC2 | < 1 | – | –
10 | CC1Oc2ccc(F)cc2-c2sc(C(=O)O)cc21 (stereo not drawn) | < 1 | – | –
11 | CN(C)c1ccc2c(c1)CCc1cc(C(N)=O)sc1-2 | < 2 | – | –
12 | Cc1cccc2c1-c1sc(C(=O)O)cc1CO2 | – | – | IC50 [2, 5]: > 2 µM
13 | O=C(O)c1cc2c(s1)-c1sccc1CC2 [4,5-dihydrobenzo[1,2-b:6,5-b′]dithiophene-2-carboxylic acid] | – | – | EC50 ([1]; class symbols): < 1 µM
14 | O=C(NCCN1CCOCC1)c1cc2c(s1)-c1ccccc1CC2 | – | > 2 | –
15 | Cc1cc2c(cc1C)-c1sc(C(=O)O)cc1CS2 | – | > 2 | –
16 | CCOC(=O)c1cc2c(s1)-c1ccc(Cl)cc1CC2 | – | > 2 | –
17 | O=C(O)c1cc2c(s1)-c1c(F)cc(F)cc1OC2 | < 2 | – | –
18 | COC(=O)c1cc2c(s1)-c1ccccc1OC2 | < 1 | – | –
19 | NC(=O)c1cc(F)c2c(c1)-c1sc(C(=O)O)cc1CO2 | – | > 2 | –
20 | CC1(C)Cc2cc(C(N)=O)sc2-c2c(F)ccc(F)c21 | < 0.05 | – | –
21 | O=C(NS(=O)(=O)O)c1cc2c(s1)-c1ccccc1CC2 | < 2 | – | –
22 | CC1(C)Oc2ccccc2-c2sc(C(=O)O)cc21 | – | > 2 | –
23 | CCOC(=O)c1cc2c(s1)-c1ccc(C)c(F)c1CC2 | < 1 | – | –

Row | SMILES | IC50 ([2]; class symbols) [µM] | IC50 [2, 4] [µM] | also measured
24 | Cc1ccc2c(c1)-c1sc(C(=O)O)cc1CS2 | – | – | IC50 [2, 5]: > 2 µM
25 | CN(C)CCNC(=O)c1cc2c(s1)-c1ccccc1CC2 | – | > 2 | –
26 | NC(=O)c1cc2c(s1)-c1c(F)ccc(F)c1OC2 | < 0.05 | – | –
27 | Cc1ccc2c(c1C)CCc1cc(C(=O)O)sc1-2 | < 1 | – | –
28 | O=C(O)C1C(O)CCN1C(=O)c1cc2c(s1)-c1c(F)ccc(F)c1SC2 (stereo not drawn) | – | > 2 | –
29 | CCOC(=O)c1cc2c(s1)-c1ccc(C#N)cc1CC2 | – | > 2 | –
30 | NC(=O)c1cc2c(s1)-c1cc(Cl)ccc1OC2 | < 1 | – | –
31 | O=C(O)c1cc2c(s1)-c1c(Br)cccc1CC2 | – | > 2 | –
32 | CCOC(=O)c1cc2c(s1)-c1ccc(C)cc1CC2 | – | > 2 | –
33 | CC1(C)Oc2c(F)cc(F)cc2-c2sc(C(=O)O)cc21 | < 1 | – | –
34 | O=C(O)C1CCCN1C(=O)c1cc2c(s1)-c1c(F)ccc(F)c1SC2 (stereo not drawn) | < 1 | – | –
35 | COc1ccc2c(c1)-c1sc(C(=O)O)cc1CO2 | – | > 2 | –
36 | CC(C)(C)OC(=O)CC1CCCN1C(=O)c1cc2c(s1)-c1cc(F)cc(F)c1SC2 (stereo not drawn) | – | > 2 | –
37 | Cc1cc2c(cc1C)-c1sc(C(N)=O)cc1CC2 | < 2 | – | –
38 | O=C(O)c1cc2c(s1)-c1c(F)cc(F)cc1SC2 | < 1 | – | –
39 | Cc1ccc2c(c1C)-c1sc(C(N)=O)cc1CC2 | < 1 | – | –
40 | O=C(O)c1cc2c(s1)-c1ccoc1CC2 | – | – | EC50 [1, 3]: > 1 µM
41 | N#Cc1ccc2c(c1)-c1sc(C(=O)O)cc1CO2 | – | > 2 | –
42 | N#Cc1cc(F)c2c(c1)-c1sc(C(=O)O)cc1CO2 | < 1 | – | –
43 | Cc1ccc2c(c1C)CCc1cc(C(N)=O)sc1-2 | < 1 | – | –
44 | N#Cc1cccc2c1-c1sc(C(=O)O)cc1CC2 | – | > 2 | –
45 | CS(=O)(=O)NC(=O)c1cc2c(s1)-c1ccccc1CC2 | – | > 2 | –
